# Experimental data: ChEMBL document CHEMBL3600368, “Novel broad-spectrum inhibitors of bacterial methionine aminopeptidase” (Bioorg Med Chem Lett, 2015)
# Residues, ends and D or L forms follow the SMILES beside them. *: point of attachment. Cbz = O=C(OCc1ccccc1)*
# What was measured:
# [1] = Lipophilicity, log D of the compound; type: physicochemical; conditions: octanol/water
# [2] = Intrinsic clearance in rat liver microsomes; type: ADME; conditions: read-out: CLH
# [3] = Inhibition of Streptococcus pneumoniae methionine aminopeptidase
# [4] = Solubility of the compound; type: physicochemical
# [5] = Inhibition of Staphylococcus aureus methionine aminopeptidase
# [6] = Inhibition of Escherichia coli methionine aminopeptidase
# [7] = Inhibition of Haemophilus influenzae methionine aminopeptidase
# [8] = Unbound fraction in plasma (unknown origin); type: ADME, cell-free
logD [1],microsomal CLint [2],IC50 [3],solubility [4],IC50 [5],IC50 [6],IC50 [7],fraction unbound [8],Compound
2.6,339 µL/min/mg,46 µM,450 µM,> 200 µM,30 µM,60 µM,0.051,C[C@H](NC(=O)Cc1cc(F)cc(F)c1)C(=O)N[C@H]1CC=C[C@H](c2ccccc2)N(C)C1=O
1.65,720 µL/min/mg,7.4 µM,341 µM,,8.1 µM,11.3 µM,0.027,C[C@H](NC(=O)OCc1ccccc1)C(=O)N[C@H]1CC=C[C@H](c2ccccc2)N(C)C1=O
,,> 200 µM,,,> 200 µM,> 200 µM,,CC(=O)N[C@@H](C)C(=O)N[C@H]1CC=C[C@H](c2ccccc2)N(C)C1=O
,,> 200 µM,,,> 200 µM,> 200 µM,,C[C@H](NC(=O)OCc1ccccc1)C(=O)N[C@H]1CC=C[C@@H](c2ccccc2)N(C)C1=O
,,> 200 µM,,,> 200 µM,> 200 µM,,CN1C(=O)[C@@H](NC(=O)C(C)(C)NC(=O)OCc2ccccc2)CC=C[C@@H]1c1ccccc1
,,> 200 µM,,,> 200 µM,> 200 µM,,C[C@@H](C(=O)N[C@H]1CC=C[C@H](c2ccccc2)N(C)C1=O)N(C)C(=O)OCc1ccccc1
,,> 200 µM,,,> 200 µM,> 200 µM,,CC(C)[C@H](NC(=O)OCc1ccccc1)C(=O)N[C@H]1CC=C[C@H](c2ccccc2)N(C)C1=O
,,71.4 µM,,,102 µM,132 µM,,CN1C(=O)[C@@H](NC(=O)[C@H](CO)NC(=O)OCc2ccccc2)CC=C[C@@H]1c1ccccc1
1.98,93.5 µL/min/mg,0.12 µM,> 1000 µM,,1.4 µM,6.7 µM,0.108,C[C@H](NC(=O)[C@@H](N)c1ccccc1)C(=O)N[C@H]1CC=C[C@H](C2CCCCC2)N(C)C1=O
,,4 µM,,,8 µM,15.6 µM,,C[C@H](NC(=O)[C@H](N)c1ccccc1)C(=O)N[C@H]1CC=C[C@H](C2CCCCC2)N(C)C1=O
,,> 200 µM,,,> 200 µM,> 200 µM,,C[C@H](N)C(=O)N[C@@H](C)C(=O)N[C@H]1CC=C[C@H](C2CCCCC2)N(C)C1=O
2.2,689 µL/min/mg,9.7 µM,> 1000 µM,,2.2 µM,4.7 µM,0.109,C[C@H](NC(=O)[C@@H](N)Cc1ccccc1)C(=O)N[C@H]1CC=C[C@H](C2CCCCC2)N(C)C1=O
2.69,159 µL/min/mg,0.3 µM,888 µM,,0.8 µM,1.1 µM,0.016,C[C@H](NC(=O)[C@@H](N)c1cccc(Cl)c1)C(=O)N[C@H]1CC=C[C@H](C2CCCCC2)N(C)C1=O
,,> 200 µM,,,> 200 µM,> 200 µM,,C[C@H](NC(=O)[C@H](C)NC(=O)OCc1ccccc1)C(N)=O (Cbz-Ala-Ala-NH2)
